Measurements taken from the NIST ThermoML archive (doi:10.1021/acs.jced.8b00157).

Test: an = ratio of the nth substance listed
Settings: 100 kPa, Liquid, Buoyancy - hydrostatic balance

[F][Al]([F])[F] [aluminum fluoride] + [F-].[K+]
mass density [kg/m3]
Settings	a2 = 1.3	a2 = 1.5
1068.5 K	1772	–
1068.7 K	–	1790
1069.1 K	–	1790
1069.3 K	1772	–
1069.4 K	1771	–
1069.6 K	1771	1790
1069.9 K	–	1789
1070.1 K	1771	–
1070.2 K	–	1789
1070.5 K	1771	–
1070.7 K	–	1788
1071.1 K	–	1788
1071.2 K	1770	–
1071.3 K	1770	–
1071.4 K	–	1788
1071.9 K	1769	1787
1072 K	1769	–
1072.3 K	–	1787
1072.6 K	1768	–
1072.7 K	1768	1787
1073 K	–	1787
1073.4 K	1768	1787
1073.7 K	–	1786
1073.8 K	1767	–
1073.9 K	1767	–
1074.1 K	–	1786
1074.5 K	–	1786
1074.7 K	1766	–
1074.9 K	–	1786
1075.2 K	–	1785
1075.3 K	1766	–
1075.4 K	–	1785
1075.5 K	1766	–
1075.6 K	–	1784
1076 K	1765	–
1076.2 K	–	1784
1076.4 K	1765	–
1076.5 K	1765	–
1076.6 K	–	1784
1076.7 K	1765	–
1077 K	–	1784
1077.3 K	–	1783
1077.4 K	1763	–
1077.7 K	–	1783
1078.1 K	–	1783
1078.2 K	1762	–
1078.3 K	1762	1782
1078.4 K	1761	–
1078.7 K	–	1782
1079.1 K	1761	1782
1079.4 K	–	1782
1079.5 K	1760	–
1079.7 K	1760	1781
1080.2 K	–	1781
1080.5 K	–	1780
1080.7 K	1760	–
1080.8 K	1759	–
1081 K	–	1780
1081.2 K	1759	–
1081.3 K	–	1780
1081.4 K	1759	–
1081.6 K	1758	–
1081.7 K	1757	–
1081.8 K	–	1780
1082.1 K	–	1779
1082.4 K	1758	–
1082.5 K	–	1779
1082.7 K	1757	–
1082.8 K	1757	1779
1083.2 K	–	1779
1083.6 K	–	1778
1083.9 K	1756	1778
1084.1 K	1756	–
1084.3 K	–	1778
1084.4 K	1756	–
1084.8 K	–	1778
1084.9 K	1756	–
1085.1 K	–	1777
1085.4 K	1755	–
1085.5 K	–	1777
1085.6 K	1755	–
1085.9 K	–	1776
1086.2 K	1754	–
1086.4 K	1754	1776
1086.6 K	–	1776
1086.9 K	1754	–
1087 K	1754	–
1087.1 K	–	1776
1087.6 K	–	1775
1087.7 K	1753	–
1088 K	1753	1775
1088.2 K	1753	–
1088.3 K	1752	–
1088.4 K	–	1775
1088.8 K	1752	1775
1089.2 K	–	1774
1089.3 K	1751	–
1089.6 K	–	1774
1089.7 K	1751	–
1089.9 K	–	1774
1090.4 K	1751	1774
1090.5 K	1751	–
1090.7 K	–	1773
1091 K	1750	–
1091.1 K	–	1773
